Measured values taken from US10561639B2, “Composition comprising a TNFR agonist and at least one thioredoxin inhibitor for use in the treatment of carcinoma” (UNIVERSITY OF HUDDERSFIELD, priority 2013, dated 2020).

Columns and labels:
[1] = test system: Bladder carcinoma cells (EJ); test: Cytotox-Glo apoptosis assay in bladder carcinoma cells (EJ); type: cell-based; conditions: 48 hours, G28-5 10 ug/mL, PX-12 at minimally cytotoxic concentration, FIG. 1
Method: Referring firstly to FIG. 1 where comparative results are shown from Bladder carcinoma cells (EJ) treated with soluble CD40 agonist (agonistic antibody G28-5), the indicated concentration of Trx inhibitor (PX-12), or their combination and results compared to untreated (Control) cells. Apoptosis was assessed 48 hours later using the Cytotox-Glo assay (Promega). Raw data (relative luminescence units) are shown and results are representative of three independent experiments in which six technical replicates were carried out for each condition.
Apoptosis was assessed 48 hours later using the Cytotox-Glo assay (Promega). Results are expressed as relative luciferase in comparison to negative controls and are representative of four independent experiments in which six technical replicates were carried out for each condition.
Carcinoma cell lines EJ and HCT116 (obtained from the European Collection of Cell Cultures, ECACC) were maintained in a 50:50 (v/v) mixture of Dulbecco's Modified Eagle Medium (DMEM, Sigma) and Roswell Park Memorial Institute 1640 (RPMI, Sigma) (DR), supplemented with 5% Fetal calf serum (FCS, Biosera) and 1% (2 mM) L-Glutamine (Sigma). Cells were incubated at 37° C. in a humidified atmosphere of 5% CO2 in air. […] Cells were removed with a 10 mL suspension of DR 5% and counted in single cell suspension using an “improved Neubauer” haemocytometer (VWR). […]

[2] = test system: colorectal carcinoma cells (HCT116); test: Sensolyte caspase activity assay in colorectal carcinoma cells (HCT116); type: cell-based; conditions: 24 hours, PX-12 3 μM, G28-5 10 ug/mL, FIG. 3
Method: Apoptosis was assessed on the basis of caspase activity detection after 24 hours of treatment using the Sensolyte (Anaspec) assay (Cambridge Biosciences). Results are expressed as relative fluorescence (relative caspase activity) in comparison to negative controls and are representative of two independent experiments in which six technical replicates were carried out for each condition.
Carcinoma cell lines EJ and HCT116 (obtained from the European Collection of Cell Cultures, ECACC) were maintained in a 50:50 (v/v) mixture of Dulbecco's Modified Eagle Medium (DMEM, Sigma) and Roswell Park Memorial Institute 1640 (RPMI, Sigma) (DR), supplemented with 5% Fetal calf serum (FCS, Biosera) and 1% (2 mM) L-Glutamine (Sigma). […] Cells were removed with a 10 mL suspension of DR 5% and counted in single cell suspension using an “improved Neubauer” haemocytometer (VWR).
EJ and HT116 cells were seeded into white 96-well plates (at […] and 6×10^3 cells per well, respectively) and left incubated overnight. […] Cells were then incubated for 48 hours before assessing cell death using the CytoTox-Glo™ cell death detection assay (according to the manufacturer's instructions) on a FLUOstar™ OPTIMA (BMG Labtech) plate reader. Alternatively, after 24 or 48 hours caspase activity was determined using the SensoLyte® Homogenous AFC Caspase-3/7 Assay Kit (Anaspec). […]

[3] = test system: colorectal carcinoma SW480 cells; test: Cytotox-Glo % cell death in colorectal carcinoma SW480 cells; type: cell-based; conditions: 12 hours, BS-1 5 microg/mL, PX-12 4 microM, FIG. 8
Method: Apoptosis was assessed 12 hours later using the Cytotox-Glo assay (Promega). Results were obtained as relative luciferase activity in comparison to negative controls and subsequently percentage (%) cell death values were deduced for each condition according to the manufacturer's instructions. Results are representative of two independent experiments in which six technical replicates were carried out for each condition.

[4] = PX-12 alone; cited from earlier work
[5] = test system: ASK-1 protein knock-out EJ cell derivatives ('S18'); test: Cytotox-Glo apoptosis assay in ASK-1 knock-out EJ derivatives treated with mCD40L; type: cell-based; conditions: S18 cells versus EJ cells, 48 hours, FIG. 5
Method: (§1) The cells were treated with mCD40L and apoptosis was assessed 48 hours later using the Cytotox-Glo assay (Promega) and by measuring levels of phospho-JNK and Bax using immune-blotting. The images from the blotting can be seen in FIGS. 6a and 6b.

[6] = test system: phospho-JNK and Bax in ASK-1 knock-out EJ cell derivatives ('S18'); test: Immunoblotting of phospho-JNK and Bax after mCD40L; type: cell-based; conditions: cells with ASK-1 knockdown (S18), FIGS. 6a and 6b
Method: as §1

CCC(C)SSc1ncc[nH]1 (stereo not drawn) [PX-12, 2-[(1-Methylpropyl)dithio]-1H-imidazole]
cytotoxicity / apoptosis (Cytotox-Glo, relative luminescence units) [1]: little
cytotoxicity / apoptosis by caspase activation (relative caspase activity) [2]: some cytotoxicity
pro-apoptotic activity / cytotoxicity (% Cell Death) [3]: some but not extensive cytotoxicity
doses required for conventional PX-12 treatment to obtain cytotoxicity [4]: 10 to 25 µg/mL

B1: mCD40L: membrane CD40 ligand delivered by co-culture with growth-arrested third-party cells expressing mCD40L (protein, UniProt P29965 1-261, looked up)
chain: MIETYNQTSPRSAATGLPISMKIFMYLLTVFLITQMIGSALFAVYLHRRLDKIEDERNLHEDFVFMKTIQRCNTGERSLSLLNCEEIKSQFEGFVKDIMLNKEETKKENSFEMQKGDQNPQIAAHVISEASSKTTSVLQWAEKGYYTMSNNLVTLENGKQLTVKRQGLYYIYAQVTFCSNREASSQAPFIASLCLKSPGRFERILLRAANTHSSAKPCGQQSIHLGGVFELQPGASVFVNVTDPSQVSHGTGFTSFGLLKL
modifications: full-length expressed on growth-arrested feeder cells
apoptosis after mCD40L in ASK-1 knockdown cells (Cytotox Glo) [5]: inhibition of apoptosis
p-JNK and Bax induction [6]: lack of p-JNK and Bax induction
